Read-outs that look alike come from different tables or passages of the source.
Key:
[1] = cell-based experiments, earlier work, cited from earlier work
HCT116 = test: MTS cell viability assay, HCT116; assay type: cell-based; details: Homo sapiens, HCT-116; 72 h, Wnt/β-catenin hyperactive, mean ± SD (n = 3)
Description: (§1) MTS Cell Growth Inhibition Experiments. Colorectal cancer cells (SW480 and HCT116) and triple negative breast cancer cells (MDA-MB-231 and MDA-MB-468) were seeded in 96-well plates at 5×10^3 cells/well in DMEM with 10% FCS, maintained overnight at 37° C., and incubated with the tested compounds at various concentrations. Human mammary epithelial cell MCF10A were seeded in 96-well plates at 1×10^4 cells/well in MEGM (CC-3150, Lonza) with 100 ng/mL cholera toxin, maintained overnight at 37° C., and incubated with the tested compounds at various concentrations. Cell viability was monitored after 72 h using a freshly prepared mixture of 1 part phenazine methosulfate (PMS, Sigma) solution (0.92 mg/mL) and 19 parts 3-(4,5-dimethylthiazol-2-yl)-5-(3-carboxymethoxyphenyl)-2-(4-sulfophenyl)-2H-tetrazolium (MTS, Promega) solution (2 mg/mL). Cells were incubated in 10 μL of this solution at 37° C. for 3 h, and A490 was measured. […] Experiments were performed in triplicate.

[2] = test system: Wnt/β-catenin hyperactive cancer cells; test: MTS cell viability assays, cell panel; assay type: cell-based; details: Homo sapiens, MCF-10A; all tested cells incl. MCF10A; read-out: MTS IC50 on all tested cells
Description: as §1

MDA-MB-231 = test: MTS cell viability assay, MDA-MB-231; assay type: cell-based; details: Homo sapiens, 72 h, Wnt/β-catenin hyperactive, mean ± SD (n = 3)
Description: as §1

SW480 = test: MTS cell viability assay, SW480; assay type: cell-based; details: Homo sapiens, 72 h, Wnt/β-catenin hyperactive, mean ± SD (n = 3)
Description: as §1

MDA-MB-468 = test: MTS cell viability assay, MDA-MB-468; assay type: cell-based; details: Homo sapiens, 72 h, Wnt/β-catenin hyperactive, mean ± SD (n = 3)
Description: as §1

MCF10A = test: MTS cell viability assay, MCF10A; assay type: cell-based, human; details: for IC50: Homo sapiens, MCF-10A, 72 h, Wnt/β-catenin normal, mean ± SD (n = 3)
Description: as §1

β-catenin/BCL9 PPI = target: T1, β-catenin/BCL9 PPI (Homo sapiens, UniProt P35222); test: AlphaScreen competitive inhibition assay of β-catenin/BCL9 PPI; assay type: binding; details: for AlphaScreen inhibitory activity in words: SAR comparison
T1 construct: Full-length β-catenin (residues 1-781); host or cells: E. coli BL21 DE3
T1 sequence (P35222 1-781): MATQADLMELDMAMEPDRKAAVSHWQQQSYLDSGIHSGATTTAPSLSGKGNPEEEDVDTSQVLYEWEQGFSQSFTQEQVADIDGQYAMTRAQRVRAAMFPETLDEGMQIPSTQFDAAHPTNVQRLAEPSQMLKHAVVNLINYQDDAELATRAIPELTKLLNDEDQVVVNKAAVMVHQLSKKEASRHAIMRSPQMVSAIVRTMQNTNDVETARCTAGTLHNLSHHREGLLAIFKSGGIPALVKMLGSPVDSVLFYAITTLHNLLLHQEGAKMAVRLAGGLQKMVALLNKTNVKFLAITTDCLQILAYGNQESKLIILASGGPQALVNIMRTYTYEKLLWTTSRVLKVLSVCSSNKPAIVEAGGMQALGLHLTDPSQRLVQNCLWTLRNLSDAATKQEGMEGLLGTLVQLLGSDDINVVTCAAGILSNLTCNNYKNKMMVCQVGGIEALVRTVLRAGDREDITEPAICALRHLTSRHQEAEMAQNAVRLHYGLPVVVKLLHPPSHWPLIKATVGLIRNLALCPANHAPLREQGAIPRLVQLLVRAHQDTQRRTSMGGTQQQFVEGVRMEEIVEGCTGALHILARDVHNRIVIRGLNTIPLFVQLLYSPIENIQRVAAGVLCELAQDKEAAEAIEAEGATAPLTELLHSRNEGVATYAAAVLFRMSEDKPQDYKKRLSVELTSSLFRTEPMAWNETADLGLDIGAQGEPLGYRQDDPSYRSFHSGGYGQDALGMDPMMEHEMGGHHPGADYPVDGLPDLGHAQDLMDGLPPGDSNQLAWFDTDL
Description: AlphaScreen Assays of β-Catenin and BCL9 Interaction. Experiments were performed in white opaque 384-well plates from PerkinElmer (Waltham, MA), and the samples were read on a Biotek Synergy 2 plate reader (Winooski, VT) with excitation at 680 nm and emission at 570 nm. The standard AlphaScreen protocol was used with a sensitivity setting of 200. All dilutions were made in 1x assay buffer containing 25 mM Hepes (pH 7.4), 100 mM NaCl, 0.01% Triton X-100 and 0.1% BSA to minimize nonspecific interactions.
For the β-catenin/BCL9 assay, 5 nM biotinylated BCL9, and 50 nM His6-tagged 8-catenin were incubated in assay buffer for 30 min. Different concentrations of the tested inhibitor were added and incubated in 20 μL assay buffer for another 1 h. All of the assay plates were covered and gently mixed on an orbital shaker. Donor and acceptor beads were then added to the plates to a final concentration of 10 μg/mL in 25 μL assay buffer. The mixture was incubated for 1 h before detection. The IC50 value was determined by nonlinear least-square analysis of GraphPad Prism 8.0. […] All of the experiments were performed in triplicate and carried out in the presence of 1% DMSO for small-molecule inhibitors. Each compound was assayed at least by three independent experiments. The results were expressed as mean±standard deviation.

[3] = test system: Wnt/β-catenin signaling (TOPFlash luciferase reporter); test: TOPFlash luciferase reporter assay in SW480 cells; assay type: cell-based; details: Homo sapiens, 24 h
Description: The suppressing effect of the inhibitors on transactivation of Wnt/β-catenin signaling was evaluated by the TOPFlash/FOPFlash luciferase reporter assay. In the TOPFlash assay, the luciferase reporter has three wild-type Tcf4 binding sites, while in the FOPFlash assay Tcf4 binding sites were mutated. These tandem Tcf binding sites controls the expression ratio of the firefly luciferase in TOPFlash/FOPFlash assays. The renilla luciferase reporter construct (pCMV-RL) was used as the internal control to normalize luciferase reporter signals and eliminate any possible systematic errors. […] This selectivity trend is consistent with that from MTS cell viability assays. Therefore, further cell-based studies were focused on compound 30.
Cell Transfection and Luciferase Assay. FuGENE6 (E269A, Promega) 96 well plate format was used for the transfection of SW480 cells according to the manufacturer's instruction. SW480 cells were co-transfected with 60 ng the TOPFlash or FOPFlash firefly luciferase reporter gene and 40 ng renilla luciferase pCMV-RL normalization reporter gene. Cells were cultured in DMEM and 10% FBS at 37° C. for 24 h, and different concentrations of inhibitors or DMSO was added. After 24 h, the luciferase reporter activity was measured using the Dual-Glo system (E2940, Promega). […]

[4] = Table 1, AlphaScreen, inhibitors 16-26
[5] = Table 1, AlphaScreen, inhibitors 16-26, Ki derived from IC50, read-out: Ki
[6] = Table 2, AlphaScreen, inhibitors 27-30 (R- and S-isomers), preliminary
[7] = Table 2, AlphaScreen, inhibitors 27-30 (R- and S-isomers), preliminary, read-out: Ki
[8] = first Table 3, AlphaScreen, inhibitors 31-35
[9] = first Table 3, AlphaScreen, inhibitors 31-35, read-out: Ki

In the case of `CC(C)c1ccc(COC(=O)N2CCC[C@@H](c3cccc(OC(C)(C)C(=O)O)c3)C2)cc1` [CP868388], the cellular activity [1] is listed as “inactive in cell-based experiments” and the cellular activity ([1]; listed as 1) is listed as “did not show any cellular activity”.

For `CC(C)(C)OC(=O)C(C)(C)Oc1cccc(N2CCCC(C(=O)N(Cc3ccc(-c4cccs4)cc3)C3CC3)C2)c1` (centres unmarked) [Compound 17, tert-Butyl 2-(3-(3-(cyclopropyl(4-(thiophen-2-yl)benzyl)carbamoyl)piperidin-1-yl)phenoxy)-2-methylpropanoate], the IC50 (HCT116) was greater than 200 µM, the IC50 [2] was greater than 200 µM and the IC50 (MDA-MB-231) was greater than 200 µM. The IC50 (SW480) was greater than 200 µM, the IC50 (MDA-MB-468) was greater than 200 µM and the IC50 (MCF10A) was greater than 200 µM. The Ki (β-catenin/BCL9 PPI; AlphaScreen competitive inhibition assay, read-out: Ki for disruption of the β-catenin/BCL9 PPI) was greater than 90 µM, the “AlphaScreen inhibitory activity in words” value (β-catenin/BCL9 PPI) was “significant potency loss” and the IC50 (β-catenin/BCL9 PPI; [4]) was greater than 100 µM. It also gave a Ki (β-catenin/BCL9 PPI; [5]) greater than 90 µM.

`CC(C)(Oc1cccc(N2CCCC(C(=O)N(Cc3ccc(-c4cccs4)cc3)C3CC3)C2)c1)C(=O)NS(=O)(=O)c1ccc(C#N)cc1` (centres unmarked) [Compound 26, 1-(3-((1-((4-Cyanophenyl)sulfonamido)-2-methyl-1-oxopropan-2-yl)oxy)phenyl)-N-cyclopropyl-N-(4-(thiophen-2-yl)benzyl) piperidine-3-carboxamide] gave an IC50 (β-catenin/BCL9 PPI; [4]) of no more than 5 µM and a Ki (β-catenin/BCL9 PPI; [5]) of no more than 5 µM.

Molecule `COc1cccc(S(=O)(=O)NC(=O)C(C)(C)Oc2cccc(N3CCC[C@@H](C(=O)N(Cc4ccc(-c5cccs5)cc4)C4CC4)C3)c2)c1` [Compound 27, (R)—N-Cyclopropyl-1-(3-((1-((3-methoxyphenyl)sulfonamido)-2-methyl-1-oxopropan-2-yl)oxy)phenyl)-N-(4-(thiophen-2-yl)benzyl) piperidine-3-carboxamide] has an IC50 (β-catenin/BCL9 PPI; [6]) of no more than 10 µM and a Ki (β-catenin/BCL9 PPI; [7]) of no more than 5 µM.

Molecule `COc1cccc(S(=O)(=O)NC(=O)C(C)(C)Oc2cccc(N3CCC[C@H](C(=O)N(Cc4ccc(-c5cccs5)cc4)C4CC4)C3)c2)c1` [Compound 28, (S)—N-Cyclopropyl-1-(3-((1-((3-methoxyphenyl)sulfonamido)-2-methyl-1-oxopropan-2-yl)oxy)phenyl)-N-(4-(thiophen-2-yl)benzyl) piperidine-3-carboxamide] has an IC50 [3] of 7.8 µM, an IC50 (HCT116) of 29.9 ± 1.99 µM and an IC50 (MDA-MB-231) of 19.8 ± 1.59 µM. For the same molecule, the IC50 (SW480) was 28.2 ± 1.08 µM, the IC50 (MDA-MB-468) was 15.4 ± 2.49 µM and the IC50 (MCF10A) was 30.4 ± 2.47 µM. For the same molecule, the “selectivity for hyperactive cancer cells over normal MCF10A cells” value (MCF10A; MTS IC50 MCF10A versus cancer cells) was “much less selective over MCF10A cells”, the “AlphaScreen inhibitory activity in words” value (β-catenin/BCL9 PPI) was “slightly superior to R-isomer” and the IC50 (β-catenin/BCL9 PPI; [6]) was no more than 5 µM. For the same molecule, the Ki (β-catenin/BCL9 PPI; [7]) was no more than 5 µM.

Work on `CC(C)(Oc1cccc(N2CCC[C@@H](C(=O)N(Cc3ccc(-c4cccs4)cc3)C3CC3)C2)c1)C(=O)NS(=O)(=O)c1ccc(C#N)cc1` [Compound 29, (R)-1-(3-((1-((4-Cyanophenyl)sulfonamido)-2-methyl-1-oxopropan-2-yl)oxy)phenyl)-N-cyclopropyl-N-(4-(thiophen-2-yl)benzyl) piperidine-3-carboxamide] yielded an IC50 (β-catenin/BCL9 PPI; [6]) of no more than 5 µM and a Ki (β-catenin/BCL9 PPI; [7]) of no more than 5 µM.

Work on `CC(C)(Oc1cccc(N2CCCC(C(=O)N(Cc3ccc(-c4cccs4)cc3)C3CC3)C2)c1)C(=O)NS(=O)(=O)C(F)(F)F` (centres unmarked) [Compound 31] yielded an IC50 (β-catenin/BCL9 PPI; [8]) of roughly 200 µM and a Ki (β-catenin/BCL9 PPI; [9]) of roughly 168 µM.

In the case of `CC(C)(Oc1cccc(N2CCC[C@@H](C(=O)N(Cc3ccc(-c4cccs4)cc3)C3CC3)C2)c1)C(=O)NS(=O)(=O)C1CC1` [Compound 32], the IC50 (β-catenin/BCL9 PPI; [8]) is reported as no more than 30 µM and the Ki (β-catenin/BCL9 PPI; [9]) is reported as no more than 30 µM.

`CC(C)(Oc1cccc(N2CCC[C@H](C(=O)N(Cc3ccc(-c4cccs4)cc3)C3CC3)C2)c1)C(=O)NS(=O)(=O)C1CC1` [Compound 33] gave an IC50 (β-catenin/BCL9 PPI; [8]) of no more than 30 µM and a Ki (β-catenin/BCL9 PPI; [9]) of no more than 30 µM.

Work on `COc1ccc(S(=O)(=O)NC(=O)C(C)(C)Oc2cccc(N3CCC[C@H](C(=O)N(Cc4ccc(-c5cccs5)cc4)C4CC4)C3)c2)cc1` [Compound 34] yielded an IC50 (β-catenin/BCL9 PPI; [8]) of no more than 30 µM and a Ki (β-catenin/BCL9 PPI; [9]) of no more than 30 µM.

For `CC(C)(Oc1cccc(N2CCC[C@H](C(=O)N(Cc3ccc(-c4cccs4)cc3)C3CC3)C2)c1)C(=O)NS(=O)(=O)c1cccc(C#N)c1` [Compound 35], the IC50 (β-catenin/BCL9 PPI; [8]) was no more than 10 µM and the Ki (β-catenin/BCL9 PPI; [9]) was no more than 10 µM.

Reference: patent US20250019371A1, “SMALL-MOLECULAR INHIBITORS FOR THE BETA-CATENIN/ B-CELL LYMPHOMA 9 PROTEIN-PROTEIN INTERACTION” (H. LEE MOFFITT CANCER CENTER AND RESEARCH INSTITUTE, INC., priority 2021, published 2025)
